Patent US8741903B2, “Organic compound for use in the treatment of hepatocellular cancer (HCC)” (priority 2010, dated 2014)
Where two headings read alike, the source gives them in different places.

Legend:
[1] = system: HUH7 human HCC xenografts; assay type: in vivo; settings: 21 days, HUH7 xenograft
Experimental: 12 days after the injection of tumor cells the tumor volumes are 138±24 mm^3.
Each group contains 8 animals. […] The application volumes in all experiments were 10 ml/kg.

[2] = system: PLC/PFR/5 human HCC xenografts; assay: PLC/PFR/5 human HCC subcutaneous xenograft in female nude mice; settings: 24 days; for % T/C (ΔT/ΔC %, tumor volume): PLC/PFR/5 xenograft
HCC = HCC patients of Asia-Pacific region; cited from earlier work
unresectable HCC = settings: 1st line treatment, patients with unresectable HCC; cited from earlier work
[3] = 50 mg/kg p.o. qd, statistically significant

SMILES | % T/C (ΔT/ΔC %, tumor volume) ([1]; 10 mg/kg p.o. qd) [%] | % T/C (ΔT/ΔC %, tumor volume) ([1]; 30 mg/kg p.o. qd, statistically significant) [%] | % T/C (ΔT/ΔC %, tumor volume) [1, 3] [%] | % T/C (ΔT/ΔC %, tumor volume) ([2]; 10 mg/kg p.o. qd) [%] | % T/C (ΔT/ΔC %, tumor volume) ([2]; 30 mg/kg p.o. qd) [%] | % T/C (ΔT/ΔC %, tumor volume) [2, 3] [%] | effect on body weight as compared to the vehicle-treated group ([2]; 10, 30 and 50 mg/kg p.o. qd) | median overall survival (HCC) [months] | median overall survival (unresectable HCC) [months]
CN1CCN(c2ccc3nc(-c4c(N)c5c(F)cccc5[nH]c4=O)[nH]c3c2)CC1 [Compound I, 4-amino-5-fluoro-3-[6-(4-methylpiperazin-1-yl)-1H-benzimidazol-2-yl]-1H-quinolin-2-one] | 75 | 40 | 20 | 67 | 47 | 19 | no significant effect on body weight | – | –
CNC(=O)c1cc(Oc2ccc(NC(=O)Nc3ccc(Cl)c(C(F)(F)F)c3)cc2)ccn1 [sorafenib] | – | – | – | – | – | – | – | 6.5 | 10.7
